Experimental findings from US11407768B2, “AMPK activators” (Kallyope, Inc., priority 2020, dated 2022) are described below.

Usually EC50 stands for the concentration that produces a half-maximal response.

Chain of Recombinant AMPK α1/β1/γ1 complex (Q13131 whole entry): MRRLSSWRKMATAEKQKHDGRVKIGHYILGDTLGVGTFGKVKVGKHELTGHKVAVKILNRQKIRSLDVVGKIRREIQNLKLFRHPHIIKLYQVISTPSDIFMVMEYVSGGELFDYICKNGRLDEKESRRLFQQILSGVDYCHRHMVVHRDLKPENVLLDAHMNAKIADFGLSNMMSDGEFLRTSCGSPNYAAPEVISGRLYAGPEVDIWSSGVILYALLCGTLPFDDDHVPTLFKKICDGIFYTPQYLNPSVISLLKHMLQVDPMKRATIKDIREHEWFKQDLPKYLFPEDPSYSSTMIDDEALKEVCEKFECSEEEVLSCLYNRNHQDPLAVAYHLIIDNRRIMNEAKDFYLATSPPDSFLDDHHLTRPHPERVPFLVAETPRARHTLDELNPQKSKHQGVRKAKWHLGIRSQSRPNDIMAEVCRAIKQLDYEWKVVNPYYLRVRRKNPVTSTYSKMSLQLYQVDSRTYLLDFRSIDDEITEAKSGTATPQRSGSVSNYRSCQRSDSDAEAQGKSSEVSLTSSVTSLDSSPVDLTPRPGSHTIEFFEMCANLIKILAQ
Chain of Recombinant AMPK α1/β1/γ1 complex (Q9Y478 whole entry): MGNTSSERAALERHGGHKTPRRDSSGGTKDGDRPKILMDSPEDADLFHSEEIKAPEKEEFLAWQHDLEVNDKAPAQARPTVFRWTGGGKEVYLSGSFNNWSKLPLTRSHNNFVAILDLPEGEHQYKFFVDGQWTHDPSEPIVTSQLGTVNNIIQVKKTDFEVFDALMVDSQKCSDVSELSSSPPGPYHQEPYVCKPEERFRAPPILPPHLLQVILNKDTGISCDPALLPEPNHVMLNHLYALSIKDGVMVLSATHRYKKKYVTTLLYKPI
Chain of Recombinant AMPK α1/β1/γ1 complex (P54619 whole entry partner): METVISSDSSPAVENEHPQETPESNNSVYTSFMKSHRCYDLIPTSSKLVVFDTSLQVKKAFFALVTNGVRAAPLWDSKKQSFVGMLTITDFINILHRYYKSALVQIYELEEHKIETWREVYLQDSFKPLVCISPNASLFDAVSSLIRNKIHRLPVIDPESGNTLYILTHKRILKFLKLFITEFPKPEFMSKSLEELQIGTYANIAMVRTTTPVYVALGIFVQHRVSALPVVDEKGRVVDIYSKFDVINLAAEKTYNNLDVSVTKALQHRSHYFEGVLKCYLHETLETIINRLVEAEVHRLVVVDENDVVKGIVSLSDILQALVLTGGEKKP

In this assay the target is Recombinant AMPK α1/β1/γ1 complex (Homo sapiens (Human), UniProt Q13131+Q9Y478). As to the kind of experiment: In vitro pAMPK1 kinase activation assay (ADP-Glo, SAMS peptide). In kind it is biochemical. Conditions: AMPK α1/β1/γ1 pre-activated with CAMKK2; 12-point curve; 15 min compound incubation. As for the experimental part:
Compound effect on AMPK enzyme activation was determined in a cell-free format with a 12-point concentration curve. The ADP-Glo detection system was used to determine phosphorylation of a SAMS peptide substrate. Recombinant AMPK α1/β1/γ1 complex was pre-activated by phosphorylation with CAMKK2 followed by incubated with compound for 15 minutes prior to the SAMS phosphorylation reaction. Activity curves and EC50 values were fitted by interpolation to an ATP:ADP standard curve as indicated by the ADP-Glo manufacturer using Prism software.
(In general: ADP-Glo first removes unused ATP, then detects ADP through luciferase.)
As for `O=S(=O)(NC[C@H](O)[C@@H](O)[C@H](O)[C@H](O)CO)c1ccc(-c2ccc(-c3nc4nc(O[C@@H]5CO[C@H]6[C@@H]5OC[C@H]6O)[nH]c4cc3Cl)cc2)cc1` [Compound 3, 4′-(6-chloro-2-(((3R,3aR,6R,6aR)-6-hydroxyhexahydrofuro[3,2-b]furan-3-yl)oxy)-1H-imidazo [4,5-b]pyridin-5-yl)-N-((2S,3R,4R,5R)-2,3,4,5,6-pentahydroxyhexyl)-[1,1′-biphenyl]-4-sulfonamide], the EC50 stood at 0.09 nM.

With `O=C(NCCS(=O)(=O)O)c1ccc(-c2ccc(-c3nc4nc(O[C@@H]5CO[C@H]6[C@@H]5OC[C@H]6O)[nH]c4cc3Cl)cc2)cc1` [Compound 5, 2-(4′-(6-chloro-2-(((3R,3aR,6R,6aR)-6-hydroxyhexahydrofuro[3,2-b]furan-3-yl)oxy)-1H-imidazo[4,5-b]pyridin-5-yl)-[1,1′-biphenyl]-4-ylcarboxamido)ethanesulfonic acid], the half-maximal effective concentration (EC50) turned out to be 0.86 nM.

`O=C(NCCCS(=O)(=O)O)c1ccc(-c2ccc(-c3nc4nc(O[C@@H]5CO[C@H]6[C@@H]5OC[C@H]6O)[nH]c4cc3Cl)cc2)cc1` [Compound 6, 3-(4′-(6-chloro-2-(((3R,3aR,6R,6aR)-6-hydroxyhexahydrofuro[3,2-b]furan-3-yl)oxy)-1H-imidazo[4,5-b]pyridin-5-yl)-[1,1′-biphenyl]-4-carboxamido)propane-1-sulfonic acid]: the EC50 came out at 0.62 nM.

Consider `O=C(NCC(CS(=O)(=O)O)c1ccc(Cl)cc1)c1ccc(-c2ccc(-c3nc4nc(O[C@@H]5CO[C@H]6[C@@H]5OC[C@H]6O)[nH]c4cc3Cl)cc2)cc1` (stereo partly drawn) [Compound 7, 3-(4′-(6-chloro-2-(((3R,3aR,6R,6aR)-6-hydroxyhexahydrofuro[3,2-b]furan-3-yl)oxy)-1H-imidazo[4,5-b]pyridin-5-yl)-[1,1′-biphenyl]-4-carboxamido)-2-(4-chlorophenyl)propane-1-sulfonic acid], for which the EC50 was 1.22 nM.

On to `CN(CCS(=O)(=O)O)C(=O)c1ccc(-c2ccc(-c3nc4nc(O[C@@H]5CO[C@H]6[C@@H]5OC[C@H]6O)[nH]c4cc3Cl)cc2)cc1` [Compound 8, 2-(4′-(6-chloro-2-(((3R,3aR,6R,6aR)-6-hydroxyhexahydrofuro[3,2-b]furan-3-yl)oxy)-1H-imidazo[4,5-b]pyridin-5-yl)-N-methyl-[1,1′-biphenyl]4-carboxamido)ethane-1-sulfonic acid], for which the EC50 was 1.78 nM.

`O=P(O)(O)c1ccc(-c2ccc(-c3nc4nc(O[C@H]5CO[C@H](CO)[C@@H](O)C5)[nH]c4cc3Cl)cc2)cc1` [Compound 12, (4′-(6-chloro-2-(((3R,5S,6R)-5-hydroxy-6-(hydroxymethyl)tetrahydro-2H-pyran-3-yl)oxy)-1H-imidazo[4,5b]pyridin-5-yl)-[1,1′-biphenyl]-4-yl)phosphonic acid]: the EC50 turned out to be 152 nM.

For `O=C(NCCCP(=O)(O)O)c1ccc(-c2ccc(-c3nc4nc(O[C@@H]5CO[C@H]6[C@@H]5OC[C@H]6O)[nH]c4cc3Cl)cc2)cc1` [Compound 14, (3-(4′-(6-chloro-2-(((3R,3aR,6R,6aR)-6-hydroxyhexahydrofuro[3,2-b]furan-3-yl)oxy)-1H-imidazo[4,5-b]pyridin-5-yl)-[1,1′-biphenyl]-4-carboxamido)propyl)phosphonic acid], the EC50 was 0.5 nM.

Consider `O=C(O)C(O)CNCc1ccc(-c2ccc(-c3nc4nc(O[C@@H]5CO[C@H]6[C@@H]5OC[C@H]6O)[nH]c4cc3Cl)cc2)cc1` (stereo partly drawn) [Compound 22, 3-(((4′-(6-chloro-2-(((3R,3aR,6R,6aR)-6-hydroxyhexahydrofuro[3,2-b]furan-3-yl)oxy)-1H-imidazo[4,5-b]pyridin-5-yl)-[1,1′-biphenyl]-4-yl)methyl)amino)-2-hydroxypropanoic acid], for which the EC50 is 0.63 nM.
